Test results from US20200172913A1, “PEPTIDES AND NANOPARTICLES FOR INTRACELLULAR DELIVERY OF VIRUS” (priority 2017, published 2020).
Like-named read-outs stand apart in the source and are kept apart here. *1 amine or outer side, *2 acyl side, *3 side chain or, on linkers, in order; H or OH if unused. Where a SMILES comes first, the peptide text is derived from it. Where no end group is shown, it is not given here. Cysteamide = C(CS[*:3])N[*:1]

Legend:
[1] = system: HUVEC cell lines; experiment: Cytotoxicity of AAV-CPP complexes, XTT assay; assay type: cell-based; settings: CPP concentration of 500 μM, AAV-6-βGal MOI of 300, XTT after 2 days
Experimental: The cytoxicity of the AAV-CPP complexes was evaluated on HUVEC cell lines. AAV encoding beta galactosidase (AAV-6-βGal) at MOI of 300 were preincubated in PBS with increasing concentration of CPPs ranging from 1 to 500 μM for 30 min. Cells were treated with either free AAV (No CPP) or CPP/AAV complexes for 4 h, then the medium was replaced with fresh medium. Cytotoxicity of AAV-CPP complexes was determined using the XTT assay after 2 days. […] A low cytotoxicity of 5% for PEP-1 and PEP-2 and 8% for Pant were obtained for a CPP concentration of 500 μM.

[2] = system: HepG2 cells; experiment: AAV-2 transfection of HepG2 cells with TAT-HA2 or LAH4 peptides (Liu et al., Molecular Therapy, 2014); assay type: cell-based, human; settings: 200 μM, GFP-positive cells
[3] = system: HepG2 cells; settings: AAV-2, HepG2, Liu et al., cited from earlier work
[4] = target: Adeno-associated virus AAV-2 encoding green fluorescent protein (adeno-associated virus serotype 2) (UniProt P03135); experiment: cell-based or functional assay
[5] = system: HCN2 cells; experiment: AAV-1-GFP transduction with CPPs, flow cytometry; assay type: cell-based, human; settings: 200 μM CPP; for cells expressing GFP: AAV-1 MOI of 500, HCN2, 5% in the absence of CPP
Experimental: (§1) In this example different AAV serotypes including AAV 1, AAV2, AAV5, AAV6, AAV8 and AAV9 were tested against human hepatocytes (HepG2) and human neuronal cells (HCN2) in the presence or in the absence of CPPs including ADGN-103a, ADGN-103b, ADGN-100, ADGN-109, ADGN-106, PEP-1, PEP-2, CADY, and TAT-HA2.
(§2) AAV-1, AAV-2, AAV-5, and AAV-6 viruses encoding green fluorescent protein were obtained from Cell Biolabs Inc and AAV-8 from Vector Biolabs. Stock solutions of virus were obtained at 1χ10^13 GC/ml in PBS/0.01% and diluted 50-fold to 2×10^11 GC/ml before use.
(§3) AAV-1, AAV-2, AAV-5, and AAV6 encoding green fluorescent protein were used at low MOI of 500 (1-2×10^7 PFU) and AAV-8 at MOI of 1000 (2-4×10^7 PFU). HepG2 and HCN2 cells (1 10^6 cells per well) were cultured in a 24 well plate culture dish format. For MOI of 1000, 5 μl of AAV virus diluted solutions were preincubated in PBS with increasing concentration of CPPs ranging from 0.1 to 200 μM for 30 min. For MOI of 500, 2.5 μl of AAV virus diluted solutions were preincubated in PBS with increasing concentration of CPPs ranging from 0.1 to 200 μM for 30 min. 200 μl of AAV or CPP/AAV complex solutions were added to cultured cells (1×10^6 cells per well). Cells are treated with either free AAV or CPP/AAV complexes for 4 h. and then the medium is replaced with fresh medium.
(§4) Viral mediated transgene expression was monitored by flow cytomety 2 days post-infection in HepG2 and Human neuronal HCN2. The percentage of GFP expressing cells were detected by flow cytometry and the increase of AAV infectivity was calculated based on the number of GFP-positive cells. Results are reported in FIGS. 5A-5D, 6A-6D, 7A-7D, 8A-8D, and 9A-9D.

[6] = system: HepG2 cells; experiment: AAV-1-GFP transduction with CPPs, flow cytometry; assay type: cell-based, human; settings: 200 μM CPP; for cells expressing GFP: AAV-1 MOI of 500, HepG2, 5% in the absence of CPP
Experimental: as §1, §2, §3, §4

[7] = system: HepG2 and HCN2 cells; experiment: AAV-1-GFP transduction with CPPs, statements for both cell lines; assay type: cell-based, human; settings: for impact on AAV-1 infectivity: 1 μM concentration, both cell lines; for share of the final improvement obtained with 200 μM: 10 μM concentration of CPP, AAV-1, both cell lines
Experimental: as §1, §2, §3, §4

[8] = system: HCN2 cells; experiment: AAV-2-GFP transduction with CPPs, flow cytometry; assay type: cell-based, human; settings: 200 μM CPP, AAV-2 MOI of 500, HCN2; 4% in the absence of CPP
Experimental: as §1, §2, §3, §4

[9] = system: HepG2 cells; experiment: AAV-2-GFP transduction with CPPs, flow cytometry; assay type: cell-based, human; settings: 200 μM CPP, AAV-2 MOI of 500, HepG2; 4% in the absence of CPP
Experimental: as §1, §2, §3, §4

[10] = system: HepG2 and HCN2 cells; experiment: AAV-2-GFP transduction with CPPs, statements for both cell lines; assay type: cell-based, human; settings: for impact on AAV-2 infectivity: 1 μM concentration, both cell lines; for share of the final improvement obtained with 200 μM: 10 μM concentration of CPP, AAV-2, both cell lines
Experimental: as §1, §2, §3, §4

[11] = system: HCN2 cells; experiment: AAV-5-GFP transduction with CPPs, flow cytometry; assay type: cell-based, human; settings: 200 μM CPP, AAV-5 MOI of 500, HCN2; 5% in the absence of CPP
Experimental: as §1, §2, §3, §4

[12] = system: HepG2 cells; experiment: AAV-5-GFP transduction with CPPs, flow cytometry; assay type: cell-based, human; settings: 200 μM CPP, AAV-5 MOI of 500, HepG2; 5% in the absence of CPP
Experimental: as §1, §2, §3, §4

[13] = system: HepG2 and HCN2 cells; experiment: AAV-5-GFP transduction with CPPs, statements for both cell lines; assay type: cell-based, human; settings: for impact on AAV-5 infectivity: 1 μM concentration, both cell lines; for share of the final improvement obtained at 200 μM: 10 μM concentration, AAV-5, both cell lines
Experimental: as §1, §2, §3, §4

[14] = system: HCN2 cells; experiment: AAV-6-GFP transduction with CPPs, flow cytometry; assay type: cell-based, human; settings: for cells expressing GFP: 200 μM of CPP, AAV-6 MOI of 500, HCN2, 4% in the absence of CPP
Experimental: as §1, §2, §3, §4

[15] = system: HepG2 cells; experiment: AAV-6-GFP transduction with CPPs, flow cytometry; assay type: cell-based, human; settings: 200 μM CPP; for cells expressing GFP: AAV-6 MOI of 500, HepG2, 5% in the absence of CPP
Experimental: as §1, §2, §3, §4

[16] = system: HepG2 and HCN2 cells; experiment: AAV-6-GFP transduction with CPPs, statements for both cell lines; assay type: cell-based, human; settings: for impact on AAV-6 infectivity: 1 μM concentration, both cell lines; for share of the final improvement obtained at 200 μM: 10 μM concentration, AAV-6, both cell lines
Experimental: as §1, §2, §3, §4

[17] = system: HCN2 cells; experiment: AAV-8-GFP transduction with CPPs, flow cytometry; assay type: cell-based, human; settings: 200 μM CPP, AAV-8 MOI of 1000, HCN2; 5% in the absence of CPP
Experimental: as §1, §2, §3, §4

[18] = system: HepG2 cells; experiment: AAV-8-GFP transduction with CPPs, flow cytometry; assay type: cell-based, human; settings: 200 μM CPP, AAV-8 MOI of 1000, HepG2; 5% in the absence of CPP
Experimental: as §1, §2, §3, §4

[19] = system: HepG2 and HCN2 cells; experiment: AAV-8-GFP transduction with CPPs, statements for both cell lines; assay type: cell-based, human; settings: for impact on AAV-8 infectivity: 1 μM concentration, both cell lines; for share of the final improvement obtained at 200 μM: 10 μM concentration, AAV-8, both cell lines
Experimental: as §1, §2, §3, §4

[20] = target: Adeno-associated virus AAV-2 encoding green fluorescent protein (adeno-associated virus serotype 2) (UniProt P03135); experiment: cell-based or functional assay; remark: listed apart in the source

Molecule: CC(=O)N[C@@H](CCCCN)C(=O)N[C@@H](CCC(=O)O)C(=O)N[C@H](C(=O)N[C@@H](Cc1c[nH]c2ccccc12)C(=O)N[C@@H](Cc1c[nH]c2ccccc12)C(=O)N[C@@H](CCC(=O)O)C(=O)N[C@H](C(=O)N[C@@H](Cc1c[nH]c2ccccc12)C(=O)N[C@@H](Cc1c[nH]c2ccccc12)C(=O)N[C@H](C(=O)N[C@@H](CCC(=O)O)C(=O)N[C@@H](Cc1c[nH]c2ccccc12)C(=O)N[C@@H](CO)C(=O)N[C@@H](CCC(N)=O)C(=O)N1CCC[C@H]1C(=O)N[C@@H](CCCCN)C(=O)N[C@@H](CCCCN)C(=O)N[C@@H](CCCCN)C(=O)N[C@@H](CCCNC(=N)N)C(=O)N[C@@H](CCCCN)C(=O)N[C@H](C(=O)NCCS)C(C)C)[C@@H](C)O)[C@@H](C)O)[C@@H](C)O [PEP-1] (Ac-KETWWETWWTEWSQPKKKRKV-Cysteamide)
- cytotoxicity [1]: 5%

Molecule: CC(=O)N[C@@H](CCCCN)C(=O)N[C@@H](CCC(=O)O)C(=O)N[C@H](C(=O)N[C@@H](Cc1c[nH]c2ccccc12)C(=O)N[C@@H](Cc1ccccc1)C(=O)N[C@@H](CCC(=O)O)C(=O)N[C@H](C(=O)N[C@@H](Cc1c[nH]c2ccccc12)C(=O)N[C@@H](Cc1ccccc1)C(=O)N[C@H](C(=O)N[C@@H](CCC(=O)O)C(=O)N[C@@H](Cc1c[nH]c2ccccc12)C(=O)N[C@@H](CO)C(=O)N[C@@H](CCC(N)=O)C(=O)N1CCC[C@H]1C(=O)N[C@@H](CCCCN)C(=O)N[C@@H](CCCCN)C(=O)N[C@@H](CCCCN)C(=O)N[C@@H](CCCNC(=N)N)C(=O)N[C@@H](CCCCN)C(=O)N[C@H](C(=O)NCCS)C(C)C)[C@@H](C)O)[C@@H](C)O)[C@@H](C)O [PEP-2] (Ac-KETWFETWFTEWSQPKKKRKV-Cysteamide)
- cytotoxicity [1]: 5%

Molecule: KKALLALALHHLAHLALHLALALKKAC [LAH4, a leucine- and histidine-rich peptide]
- fold lower than the results obtained with the ADGN peptides [2]: 2 fold
- GFP-positive cells ([3]; 200 μM concentration of peptide): ~45%
- GFP-positive cells ([3]; concentration of CPPs): 12%

Molecule: PEP-1-DOPA (peptide)
- efficacy (GFP expressing 293 T cells) after incubation of the complexes in 50% serum [4]: 30 % reduction

Molecule: PEP-1-PEG (peptide)
- efficacy (GFP expressing 293 T cells) after incubation of the complexes in 50% serum [4]: 30 % reduction

Molecule: βAKWWERWWREWPRKRR (not fully specified (residue 1, N-terminus); printed as βAKWWERWWREWPRKRR) [ADGN-103b]
- cells expressing GFP [5]: 78%
- cells expressing GFP [6]: 81%
- impact on AAV-1 infectivity [7]: significant impact
- share of the final improvement obtained with 200 μM [7]: about 60%
- cells expressing GFP [8]: 81%
- cells expressing GFP [9]: 96%
- impact on AAV-2 infectivity [10]: significant impact
- share of the final improvement obtained with 200 μM [10]: about 70%
- cells expressing GFP [11]: 48%
- cells expressing GFP [12]: 64%
- impact on AAV-5 infectivity [13]: significant impact
- share of the final improvement obtained at 200 μM [13]: about 50%
- increase of AAV-6 efficiency ([14]; 200 μM CPP, MOI of 500, HCN2): 22 fold
- cells expressing GFP [14]: 67%
- cells expressing GFP [15]: 98%
- increase of AAV-6 efficiency ([15]; MOI of 500, HepG2): 30 fold
- impact on AAV-6 infectivity [16]: significant impact
- share of the final improvement obtained at 200 μM [16]: about 70%
- cells expressing GFP [17]: 58%
- cells expressing GFP [18]: 60%
- impact on AAV-8 infectivity [19]: significant impact
- share of the final improvement obtained at 200 μM [19]: about 60%

Molecule: βALRWWLRWASRWFSRWAWWR (not fully specified (residue 1, N-terminus); printed as βALRWWLRWASRWFSRWAWWR) [ADGN-109]
- cells expressing GFP [5]: 62%
- increase of AAV-1 efficiency ([5]; MOI of 500, HCN2): 15 fold
- cells expressing GFP [6]: 61%
- increase of AAV-1 efficiency ([6]; MOI of 500, HepG2): 16 fold
- impact on AAV-1 infectivity [7]: significant impact
- share of the final improvement obtained with 200 μM [7]: about 60%
- cells expressing GFP [8]: 58%
- cells expressing GFP [9]: 90%
- impact on AAV-2 infectivity [10]: significant impact
- share of the final improvement obtained with 200 μM [10]: about 70%
- cells expressing GFP [11]: 37%
- cells expressing GFP [12]: 51%
- impact on AAV-5 infectivity [13]: significant impact
- share of the final improvement obtained at 200 μM [13]: about 50%
- cells expressing GFP [14]: 62%
- cells expressing GFP [15]: 82%
- impact on AAV-6 infectivity [16]: significant impact
- share of the final improvement obtained at 200 μM [16]: about 70%
- cells expressing GFP [17]: 44%
- cells expressing GFP [18]: 45%
- impact on AAV-8 infectivity [19]: significant impact
- share of the final improvement obtained at 200 μM [19]: about 60%

Molecule: KETWWETWWTEWSQPKKKRKV (not fully specified (N-terminus, C-terminus)) [PEP-1 (N-acetylated, C-terminal cysteamide; Example 5)]
- level of GFP expressing cells (293 T cells, flow cytometry) after 1 h incubation of the complexes in 20% serum [20]: 60 % reduction
- level of GFP expressing cells (293 T cells, flow cytometry) after 1 h incubation of the complexes in 50% serum [20]: 80 % reduction
